# Assay results published in PubChem BioAssay (NCI).
#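 Values below derive from 48-hour exposures of cells grown in 96-well plates, with endpoints linearly interpolated between the two concentrations bracketing the appropriate inhibition level. Definition used: TGI = concentration required for complete inhibition of growth.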
# Tests used:
# Test in all cases: NCI anticancer screen, dose series, 48 h
# [1] = system: UO-31 renal
# [2] = system: RPMI-8226 leukemia
# [3] = system: NCI-H23 lung
# [4] = system: PC-3 prostate
# [5] = system: HCT-15 colon
# [6] = system: TK-10 renal
# [7] = system: BT-549 breast
# [8] = system: SW-620 colon
# [9] = system: COLO 205 colon
# [10] = system: OVCAR-3 ovarian
# [11] = system: SK-MEL-2 melanoma
# [12] = system: NCI-H226 lung
# [13] = system: CCRF-CEM leukemia
# [14] = system: HL-60(TB) leukemia
# [15] = system: SK-MEL-28 melanoma
# [16] = system: EKVX NSCLC
# [17] = system: RXF 393 renal
# [18] = system: MOLT-4 leukemia
# [19] = system: OVCAR-5 ovarian
# [20] = system: HCT-116 colon
# [21] = system: MDA-MB-435
# [22] = system: HOP-62 NSCLC
# [23] = system: MDA-N
# [24] = system: NCI-H460 lung
# [25] = system: NCI-H522 lung
# [26] = system: HT29 colon
# [27] = system: HS 578T breast
# [28] = system: SNB-19 CNS
# [29] = system: OVCAR-8 ovarian
# [30] = system: IGROV1 ovarian
# [31] = system: SF-295 CNS
# [32] = system: LOX IMVI melanoma
# [33] = system: OVCAR-4 ovarian
# [34] = system: UACC-257 melanoma
# [35] = system: A498 renal
# [36] = system: M14 melanoma
# [37] = system: T-47D breast
# [38] = system: SK-MEL-5 melanoma
# [39] = system: SK-OV-3 ovarian
# [40] = system: DU-145 prostate
# [41] = system: HOP-92 NSCLC
# [42] = system: ACHN renal
# [43] = system: SR leukemia
# [44] = system: U251 CNS
# [45] = system: MALME-3M melanoma
# [46] = system: K-562 leukemia
# [47] = system: MCF7 breast
# [48] = system: 786-0 renal
# [49] = system: CAKI-1 renal
# [50] = system: SN12C renal
# [51] = system: SF-539 CNS
# [52] = system: MDA-MB-231 breast
# [53] = system: NCI/ADR-RES ovarian
# [54] = system: KM12 colon
# [55] = system: HCC-2998 colon
# [56] = system: A549 NSCLC
# [57] = system: SF-268 CNS
# [58] = system: UACC-62 melanoma
structure (smiles),measurement,setting,value
COC(=O)[C@]12CC[C@H]3CN(C(=O)OCc4ccccc4)[C@H]([C@H]31)[C@H](C(=O)OCC[Si](C)(C)C)N2S(=O)(=O)c1ccc(C)cc1,TGI,[1],> 100 µM
same,TGI,[2],> 100 µM
same,TGI,[3],> 100 µM
same,TGI,[4],> 100 µM
same,TGI,[5],> 100 µM
same,TGI,[6],> 100 µM
same,TGI,[7],> 100 µM
same,TGI,[8],> 100 µM
same,TGI,[9],> 100 µM
same,TGI,[10],> 100 µM
same,TGI,[11],> 100 µM
same,TGI,[12],> 100 µM
same,TGI,[13],> 100 µM
same,TGI,[14],> 100 µM
same,TGI,[15],> 100 µM
same,TGI,[16],> 100 µM
same,TGI,[17],> 100 µM
same,TGI,[18],> 100 µM
same,TGI,[19],> 100 µM
same,TGI,[20],> 100 µM
same,TGI,[21],> 100 µM
same,TGI,[22],> 100 µM
same,TGI,[23],> 100 µM
same,TGI,[24],> 100 µM
same,TGI,[25],> 100 µM
same,TGI,[26],> 100 µM
same,TGI,[27],> 100 µM
same,TGI,[28],> 100 µM
same,TGI,[29],> 100 µM
same,TGI,[30],> 100 µM
same,TGI,[31],> 100 µM
same,TGI,[32],> 100 µM
same,TGI,[33],> 100 µM
same,TGI,[34],> 100 µM
same,TGI,[35],> 100 µM
same,TGI,[36],> 100 µM
same,TGI,[37],> 100 µM
same,TGI,[38],> 100 µM
same,TGI,[39],> 100 µM
same,TGI,[40],> 100 µM
same,TGI,[41],9.68 µM
same,TGI,[42],> 100 µM
same,TGI,[43],> 100 µM
same,TGI,[44],> 100 µM
same,TGI,[45],> 100 µM
same,TGI,[46],> 100 µM
same,TGI,[47],> 100 µM
same,TGI,[48],> 100 µM
same,TGI,[49],> 100 µM
same,TGI,[50],> 100 µM
same,TGI,[51],> 100 µM
same,TGI,[52],> 100 µM
same,TGI,[53],> 100 µM
same,TGI,[54],> 100 µM
same,TGI,[55],> 100 µM
same,TGI,[56],> 100 µM
same,TGI,[57],> 100 µM
same,TGI,[58],> 100 µM
CC(C)(C)C(=O)CC1(O)C=C(O)C(O)(CC(=O)C(C)(C)C)O1 (stereo not given),TGI,[1],> 100 µM
same,TGI,[2],69.7 µM
same,TGI,[3],88.7 µM
same,TGI,[4],> 100 µM
same,TGI,[5],> 100 µM
same,TGI,[6],> 100 µM
same,TGI,[7],> 100 µM
same,TGI,[9],> 100 µM
same,TGI,[10],> 100 µM
same,TGI,[11],> 100 µM
same,TGI,[12],56.6 µM
same,TGI,[13],> 100 µM
same,TGI,[14],72.1 µM
same,TGI,[15],> 100 µM
same,TGI,[16],> 100 µM
same,TGI,[17],45.1 µM
same,TGI,[18],> 100 µM
same,TGI,[19],> 100 µM
same,TGI,[20],55.3 µM
same,TGI,[21],> 100 µM
same,TGI,[22],64.7 µM
same,TGI,[23],> 100 µM
same,TGI,[24],> 100 µM
same,TGI,[25],80 µM
same,TGI,[26],> 100 µM
same,TGI,[27],> 100 µM
same,TGI,[28],> 100 µM
same,TGI,[29],> 100 µM
same,TGI,[30],55.2 µM
same,TGI,[31],> 100 µM
same,TGI,[32],> 100 µM
same,TGI,[33],64.1 µM
same,TGI,[34],> 100 µM
same,TGI,[35],> 100 µM
same,TGI,[36],51.1 µM
same,TGI,[37],> 100 µM
same,TGI,[38],> 100 µM
same,TGI,[39],> 100 µM
same,TGI,[40],> 100 µM
same,TGI,[41],> 100 µM
same,TGI,[43],> 100 µM
same,TGI,[44],> 100 µM
same,TGI,[45],> 100 µM
same,TGI,[46],> 100 µM
same,TGI,[47],> 100 µM
same,TGI,[48],34.5 µM
same,TGI,[49],67.6 µM
same,TGI,[50],> 100 µM
same,TGI,[51],90.2 µM
same,TGI,[52],> 100 µM
same,TGI,[53],> 100 µM
same,TGI,[54],> 100 µM
same,TGI,[55],> 100 µM
same,TGI,[56],> 100 µM
same,TGI,[57],> 100 µM
same,TGI,[58],97.1 µM
O=C1c2ccc3cc(CCl)cc(O)c3c2C(=O)c2cccc(O)c21,TGI,[2],> 10 µM
same,TGI,[3],> 10 µM
same,TGI,[4],> 10 µM
same,TGI,[5],> 10 µM
same,TGI,[6],> 10 µM
same,TGI,[7],> 10 µM
same,TGI,[8],1 µM
same,TGI,[9],4.11 µM
same,TGI,[10],0.407 µM
same,TGI,[11],> 10 µM
same,TGI,[12],> 10 µM
same,TGI,[13],5.16 µM
same,TGI,[14],1.61 µM
same,TGI,[15],8.27 µM
same,TGI,[16],> 10 µM
same,TGI,[17],9.83 µM
same,TGI,[18],6.75 µM
same,TGI,[19],> 10 µM
same,TGI,[20],4.18 µM
same,TGI,[21],0.324 µM
same,TGI,[22],> 10 µM
same,TGI,[23],0.314 µM
same,TGI,[24],> 10 µM
same,TGI,[25],> 10 µM
same,TGI,[27],> 10 µM
same,TGI,[28],> 10 µM
same,TGI,[29],5.03 µM
same,TGI,[30],> 10 µM
same,TGI,[31],> 10 µM
same,TGI,[32],> 10 µM
same,TGI,[33],> 10 µM
same,TGI,[34],3.04 µM
same,TGI,[35],> 10 µM
same,TGI,[36],2.45 µM
same,TGI,[37],> 10 µM
same,TGI,[38],1.98 µM
same,TGI,[39],> 10 µM
same,TGI,[40],> 10 µM
same,TGI,[41],> 10 µM
same,TGI,[42],7.4 µM
same,TGI,[43],> 10 µM
same,TGI,[44],> 10 µM
same,TGI,[45],0.0669 µM
same,TGI,[46],> 10 µM
same,TGI,[47],2.72 µM
same,TGI,[48],> 10 µM
same,TGI,[49],> 10 µM
same,TGI,[50],7.26 µM
same,TGI,[51],6.42 µM
same,TGI,[52],3.16 µM
same,TGI,[53],5.67 µM
same,TGI,[54],> 10 µM
same,TGI,[55],> 10 µM
same,TGI,[56],> 10 µM
same,TGI,[57],9.18 µM
same,TGI,[58],3.85 µM
